# How the values were obtained:
# Format in all cases: cell-based
# dTAG-HA SLC30A9 = biological target: T1, dTAG-HA SLC30A9 (Homo sapiens, UniProt Q6PML9+Q96SW2); assay: Targeted degradation of dTAG-tagged SLC30A9 (western blot); details: HAP1, 0.5 µM
# T1 construct: expressed in transfected cells
# Procedure: (C)HAP1 cells expressing dTAG-HA SLC1A5, 2A3, 30A9, 35B2, MTCH2, and 33A1 were treated for 24 hours with 0.5 µM of dTAG7 or dTAG13, as indicated. HAP1 cells expressing dTAG-HA SLC2A1 and 16A1 were treated for 24 hrs with 0.5 µM of dTAG7. HAP1 cell lines expressing dTAG-HA SLC39A7, dTAG-HA SLC4A4, and SLC7A3-dTAG-HA were treated for 48 hrs with 0.5 µM of dTAG13.
# SLC1A5, SLC2A1, SLC2A3, SLC16A1, SLC38A1, SLC38A2 were obtained as gateway-compatible pENTR/pDONR vectors from the Harvard PlasmID Repository. SLC39A7 was obtained from Dharmacon, GE Healthcare. The following vectors were synthesized by Genescript: SLC4A4, SLC7A3, SLC38A9, SLC25A1, SLC9A1, SLC9A2, SLC9A3, SLC9A4, SLC9A5, SLC9A6, SLC9A7, SLC9A8, and SLC9B2. […]
# (§1) For immunoblotting, whole cell extracts were prepared using RIPA lysis buffer (25 mM Tris/HCl pH 7.6, 150 mM NaCl, 1% NP-40, 1% sodium deoxycholate, 0.1% SDS, EDTA-free protease inhibitor (Roche) and phosphatase inhibitors 2+3 (Sigma- Aldrich)). […] Protein extracts were quantified and normalized using the BCA assay (Thermo Scientific). […]
# SLCs were ectopically expressed as fusions to a mutated FKBP domain, also known as the dTAG system. […]
# Strep/HA SLC9A6 = biological target: T2, Strep/HA SLC9A6 (Homo sapiens, UniProt Q92581); assay: Selectivity across SLC9 family: degradation of exogenous Strep/HA SLC9A6; details: HAP1; 250 or 750 nM; 16 hours
# T2 construct: expressed in transfected cells; host or cells: HAP1 (lentiviral, pRRL Strep-HA; cDNA synthesized by Genescript)
# Procedure: (§2) (E) Selectivity of d9A1-2 was tested across HAP1 cell lines expressing Strep/HASLC9A1, 9A4, 9A5, 9A8, 9A2, 9B2, 9A6, 9A9, and 9A3. Cells were treated with varying concentrations of d9A1-2 for 16 hours, after which degradation of the exogenous SLCs was monitored.
# (§3) SLC1A5, SLC2A1, SLC2A3, SLC16A1, SLC38A1, SLC38A2 were obtained as gateway-compatible pENTR/pDONR vectors from the Harvard PlasmID Repository. SLC39A7 was obtained from Dharmacon, GE Healthcare. The following vectors were synthesized by Genescript: SLC4A4, SLC7A3, SLC38A9, SLC25A1, SLC9A1, SLC9A2, SLC9A3, SLC9A4, SLC9A5, SLC9A6, SLC9A7, SLC9A8, and SLC9B2. SLC30A9, SLC33A1, SLC35B2, SLC25A26, and MTCH2 were a gift from the RESOLUTE consortium. cDNAs were transferred into gateway-compatible lentiviral expression vectors: pLX305 dTAG vectors (Addgene #91797/8) or pRRL Strep-HA (described previously43, EF1a promotor driven expression) using LR recombination (ThermoFisher Scientific). […]
# as §1
# Strep/HA SLC9B2 = biological target: T3, Strep/HA SLC9B2 (Homo sapiens, UniProt Q86UD5); assay: Selectivity across SLC9 family: degradation of exogenous Strep/HA SLC9B2; details: HAP1; 250 or 750 nM; 16 hours
# T3 construct: expressed in transfected cells; host or cells: HAP1 (lentiviral, pRRL Strep-HA; cDNA synthesized by Genescript)
# Procedure: as §2, §3, §1
# Strep/HA SLC9A9 = biological target: T4, Strep/HA SLC9A9 (Homo sapiens, UniProt Q8IVB4); assay: Selectivity across SLC9 family: degradation of exogenous Strep/HA SLC9A9; details: HAP1; 250 or 750 nM; 16 hours
# T4 construct: expressed in transfected cells; host or cells: HAP1 (lentiviral, pRRL Strep-HA)
# Procedure: as §2, §3, §1
# Strep/HA SLC9A4 = biological target: T5, Strep/HA SLC9A4 (Homo sapiens, UniProt Q6AI14); assay: Selectivity across SLC9 family: degradation of exogenous Strep/HA SLC9A4; details: HAP1; 250 or 750 nM; 16 hours
# T5 construct: expressed in transfected cells; host or cells: HAP1 (lentiviral, pRRL Strep-HA; cDNA synthesized by Genescript)
# Procedure: as §2, §3, §1
# T1 sequence (Q6PML9 with tags, fused parts or gaps): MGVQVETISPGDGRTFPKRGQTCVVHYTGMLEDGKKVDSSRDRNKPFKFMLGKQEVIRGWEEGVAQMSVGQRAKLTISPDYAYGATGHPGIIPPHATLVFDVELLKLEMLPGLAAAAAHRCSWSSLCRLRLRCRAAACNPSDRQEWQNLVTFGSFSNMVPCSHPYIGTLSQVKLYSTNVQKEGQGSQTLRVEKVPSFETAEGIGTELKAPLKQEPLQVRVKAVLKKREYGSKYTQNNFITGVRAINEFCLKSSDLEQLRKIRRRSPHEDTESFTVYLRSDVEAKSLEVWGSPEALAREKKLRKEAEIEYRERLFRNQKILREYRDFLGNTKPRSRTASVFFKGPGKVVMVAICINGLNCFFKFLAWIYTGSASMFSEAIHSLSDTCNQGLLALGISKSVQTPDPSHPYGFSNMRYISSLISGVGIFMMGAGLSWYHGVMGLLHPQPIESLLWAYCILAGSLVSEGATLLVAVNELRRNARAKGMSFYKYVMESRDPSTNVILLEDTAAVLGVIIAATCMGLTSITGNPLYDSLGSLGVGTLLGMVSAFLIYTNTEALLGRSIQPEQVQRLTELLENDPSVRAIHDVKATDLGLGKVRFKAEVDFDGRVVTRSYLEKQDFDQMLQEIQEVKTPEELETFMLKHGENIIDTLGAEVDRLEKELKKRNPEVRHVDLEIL
# T1 sequence (Q96SW2 whole entry): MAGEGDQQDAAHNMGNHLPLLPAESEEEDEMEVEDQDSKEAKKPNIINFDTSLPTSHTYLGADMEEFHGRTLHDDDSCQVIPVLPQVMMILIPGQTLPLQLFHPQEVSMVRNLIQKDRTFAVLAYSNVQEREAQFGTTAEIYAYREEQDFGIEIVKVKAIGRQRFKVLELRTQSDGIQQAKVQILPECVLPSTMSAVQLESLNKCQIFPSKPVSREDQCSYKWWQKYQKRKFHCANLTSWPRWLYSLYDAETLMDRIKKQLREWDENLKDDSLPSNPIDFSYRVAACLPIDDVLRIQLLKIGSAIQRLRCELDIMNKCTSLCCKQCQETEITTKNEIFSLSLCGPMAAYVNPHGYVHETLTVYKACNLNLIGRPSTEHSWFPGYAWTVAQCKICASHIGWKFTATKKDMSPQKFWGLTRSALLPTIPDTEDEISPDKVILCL
# T1 sequence (Q16531 whole entry partner): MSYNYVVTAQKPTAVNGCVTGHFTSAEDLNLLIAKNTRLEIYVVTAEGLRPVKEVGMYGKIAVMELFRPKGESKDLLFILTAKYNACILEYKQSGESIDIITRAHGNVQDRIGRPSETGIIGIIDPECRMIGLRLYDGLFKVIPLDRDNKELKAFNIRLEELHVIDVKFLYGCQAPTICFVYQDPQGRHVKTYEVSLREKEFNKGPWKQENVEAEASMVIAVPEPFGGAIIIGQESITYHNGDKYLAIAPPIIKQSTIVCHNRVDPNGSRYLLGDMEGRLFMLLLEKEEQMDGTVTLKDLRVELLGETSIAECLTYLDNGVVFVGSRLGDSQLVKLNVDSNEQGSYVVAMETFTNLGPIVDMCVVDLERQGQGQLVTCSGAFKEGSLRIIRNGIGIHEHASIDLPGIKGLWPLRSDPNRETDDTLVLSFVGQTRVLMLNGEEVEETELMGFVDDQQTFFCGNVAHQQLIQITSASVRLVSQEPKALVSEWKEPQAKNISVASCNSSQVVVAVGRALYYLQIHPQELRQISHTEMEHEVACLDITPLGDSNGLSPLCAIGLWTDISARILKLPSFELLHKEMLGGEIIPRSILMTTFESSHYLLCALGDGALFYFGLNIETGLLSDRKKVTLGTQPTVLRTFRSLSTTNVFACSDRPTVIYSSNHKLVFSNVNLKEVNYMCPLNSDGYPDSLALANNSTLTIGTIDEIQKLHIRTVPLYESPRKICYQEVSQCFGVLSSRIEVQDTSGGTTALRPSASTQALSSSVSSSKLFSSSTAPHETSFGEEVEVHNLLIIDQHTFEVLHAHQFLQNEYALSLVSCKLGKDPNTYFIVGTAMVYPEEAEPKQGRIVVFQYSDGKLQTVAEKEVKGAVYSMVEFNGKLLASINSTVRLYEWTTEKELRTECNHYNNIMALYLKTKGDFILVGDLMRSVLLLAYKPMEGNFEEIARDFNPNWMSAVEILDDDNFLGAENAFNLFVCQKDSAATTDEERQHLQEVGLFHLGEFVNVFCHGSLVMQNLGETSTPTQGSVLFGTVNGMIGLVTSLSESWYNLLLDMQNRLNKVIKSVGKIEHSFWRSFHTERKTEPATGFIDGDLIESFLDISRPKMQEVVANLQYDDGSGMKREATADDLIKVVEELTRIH
# T3 sequence (Q86UD5 whole entry): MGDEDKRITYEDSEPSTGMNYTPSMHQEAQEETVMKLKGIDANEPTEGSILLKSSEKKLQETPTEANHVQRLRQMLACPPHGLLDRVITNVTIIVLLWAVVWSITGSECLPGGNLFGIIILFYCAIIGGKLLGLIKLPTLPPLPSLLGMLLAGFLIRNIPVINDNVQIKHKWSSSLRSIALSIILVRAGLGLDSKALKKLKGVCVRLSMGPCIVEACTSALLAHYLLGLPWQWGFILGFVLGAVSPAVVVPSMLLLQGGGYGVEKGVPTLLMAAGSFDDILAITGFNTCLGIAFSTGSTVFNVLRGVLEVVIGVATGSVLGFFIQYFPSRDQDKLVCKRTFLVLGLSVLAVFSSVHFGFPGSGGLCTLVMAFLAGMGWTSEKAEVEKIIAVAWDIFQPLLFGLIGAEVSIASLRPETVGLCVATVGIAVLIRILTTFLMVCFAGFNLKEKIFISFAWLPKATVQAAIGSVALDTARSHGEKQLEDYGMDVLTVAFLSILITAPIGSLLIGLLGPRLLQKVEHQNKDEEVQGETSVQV
# T4 sequence (Q8IVB4 whole entry): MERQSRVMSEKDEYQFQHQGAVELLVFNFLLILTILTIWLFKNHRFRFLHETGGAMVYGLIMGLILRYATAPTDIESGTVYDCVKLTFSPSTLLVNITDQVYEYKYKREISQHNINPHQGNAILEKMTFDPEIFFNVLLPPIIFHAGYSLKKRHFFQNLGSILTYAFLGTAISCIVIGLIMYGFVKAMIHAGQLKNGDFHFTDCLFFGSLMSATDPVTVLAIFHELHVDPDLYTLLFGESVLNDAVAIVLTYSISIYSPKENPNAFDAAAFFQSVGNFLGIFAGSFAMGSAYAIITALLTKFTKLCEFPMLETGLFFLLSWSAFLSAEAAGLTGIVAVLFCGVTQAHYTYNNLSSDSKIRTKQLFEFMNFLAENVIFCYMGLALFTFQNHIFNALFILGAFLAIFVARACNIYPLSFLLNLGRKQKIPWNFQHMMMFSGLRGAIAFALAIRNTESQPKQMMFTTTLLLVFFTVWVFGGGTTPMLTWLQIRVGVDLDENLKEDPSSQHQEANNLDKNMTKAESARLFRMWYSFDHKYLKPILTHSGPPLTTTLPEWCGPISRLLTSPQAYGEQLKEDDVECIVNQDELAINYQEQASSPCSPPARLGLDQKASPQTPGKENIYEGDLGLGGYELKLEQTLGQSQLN
# T2 sequence (Q92581 1-669 isoform Q92581-1): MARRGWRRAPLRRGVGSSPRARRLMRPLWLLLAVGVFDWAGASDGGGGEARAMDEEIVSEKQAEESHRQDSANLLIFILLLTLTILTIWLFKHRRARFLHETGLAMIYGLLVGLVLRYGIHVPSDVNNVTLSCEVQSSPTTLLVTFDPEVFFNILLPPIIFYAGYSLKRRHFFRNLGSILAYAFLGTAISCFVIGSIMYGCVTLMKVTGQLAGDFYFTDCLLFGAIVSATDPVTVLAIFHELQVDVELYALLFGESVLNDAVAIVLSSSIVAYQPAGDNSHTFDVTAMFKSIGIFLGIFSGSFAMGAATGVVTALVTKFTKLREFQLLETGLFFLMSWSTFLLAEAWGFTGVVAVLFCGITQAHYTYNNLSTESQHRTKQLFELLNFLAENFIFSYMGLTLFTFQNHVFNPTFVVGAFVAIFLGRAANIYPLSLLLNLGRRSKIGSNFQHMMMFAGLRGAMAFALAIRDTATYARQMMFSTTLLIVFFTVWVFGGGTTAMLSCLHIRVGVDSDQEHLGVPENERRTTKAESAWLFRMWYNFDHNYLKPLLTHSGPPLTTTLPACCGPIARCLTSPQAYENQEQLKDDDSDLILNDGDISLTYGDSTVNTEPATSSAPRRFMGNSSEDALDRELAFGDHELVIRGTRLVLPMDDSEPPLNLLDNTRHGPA
# T5 sequence (Q6AI14 whole entry): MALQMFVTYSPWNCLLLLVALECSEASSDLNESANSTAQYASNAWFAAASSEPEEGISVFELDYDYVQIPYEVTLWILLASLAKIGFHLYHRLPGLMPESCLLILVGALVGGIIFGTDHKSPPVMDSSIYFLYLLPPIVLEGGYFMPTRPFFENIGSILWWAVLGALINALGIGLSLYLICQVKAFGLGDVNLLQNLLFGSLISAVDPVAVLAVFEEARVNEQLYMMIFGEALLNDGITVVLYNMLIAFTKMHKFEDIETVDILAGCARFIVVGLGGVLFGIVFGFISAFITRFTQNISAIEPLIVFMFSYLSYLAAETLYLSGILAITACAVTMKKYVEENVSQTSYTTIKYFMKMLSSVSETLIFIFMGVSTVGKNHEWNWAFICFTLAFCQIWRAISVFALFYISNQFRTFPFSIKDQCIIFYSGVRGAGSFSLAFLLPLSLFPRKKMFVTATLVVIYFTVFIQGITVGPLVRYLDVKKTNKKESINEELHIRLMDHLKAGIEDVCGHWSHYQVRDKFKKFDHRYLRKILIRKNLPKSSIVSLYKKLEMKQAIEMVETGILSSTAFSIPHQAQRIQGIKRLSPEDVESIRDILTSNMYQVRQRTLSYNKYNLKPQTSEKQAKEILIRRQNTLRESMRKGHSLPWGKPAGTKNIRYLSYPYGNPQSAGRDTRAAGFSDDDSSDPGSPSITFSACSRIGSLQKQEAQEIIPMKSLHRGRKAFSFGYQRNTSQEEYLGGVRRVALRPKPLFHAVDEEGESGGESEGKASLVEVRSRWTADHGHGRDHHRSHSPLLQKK
initiation of degradation (time course) (dTAG-HA SLC30A9),abundance of exogenous SLC9A6 (Strep/HA SLC9A6),abundance of exogenous SLC9B2 (Strep/HA SLC9B2),abundance of exogenous SLC9A9 (Strep/HA SLC9A9),degradation of exogenous SLC9A4 (Strep/HA SLC9A4),Structure (SMILES)
≤ 6 h,,,,,CC[C@H](C(=O)N1CCCC[C@H]1C(=O)O[C@H](CCc1ccc(OC)c(OC)c1)c1ccccc1OCC(=O)NCCCOCCOCCOCCCNC(=O)COc1cccc2c1C(=O)N(C1CCC(=O)NC1=O)C2=O)c1cc(OC)c(OC)c(OC)c1 (some centres unmarked) [dTAG7]
,not significantly affected,not significantly affected,not significantly affected,prompted degradation,Cc1cc(-c2ccc(C(=O)NCCOCCOCCOCCOCCNc3cccc4c3C(=O)N(C3CCC(=O)NC3=O)C4=O)cc2N2CCC(c3[nH]cnc3C)CC2)ccc1F (centres unmarked) [d9A1-2]
